Experimental data published in patent publication US7947695B2, “5-membered annelated heterocyclic pyrimidines as kinase inhibitors” (Janssen Pharmaceutica NV, priority 2005, dated 2011).

biological target: CDK4/cyclinD1 (Homo sapiens, UniProt P11802); experiment: In vitro filtration assay for CDK4 inhibitory activity (pRb phosphorylation, [33P]-ATP); type: biochemical; settings: GST-pRb substrate, 1 μM unlabeled ATP, 25° C. 45 minutes, read-out: cdk4 filter (pIC50) (converted)
Description: (§1) Compounds of the present invention were tested in an in vitro filtration assay assessing CDK4 activity by means of its pRb-phosphorylation activity using [^33P]-ATP as phosphor donor. The radioactive phosphorylated pRb is then captured on filtermats and the incorporated [^33P] quantitated using a phosphorage storage screen.
The CDK4 kinase reaction is performed at 25° C. for 45 minutes in a 96-well microtiterplate. The 25 μl reaction volume contains 50 mM Hepes pH 7.5, 10 mM NaF, 10 mM MgCl2, 1 mM Na3VO4, 1 μM unlabeled ATP, 1 mM DTT, 0.5 μCi AT^33P, 0.76 μg/well GST-pRb, 50 ng CDK4/cyclinD1/well and 0.2% compound in 100% DMSO.
(§2) The reaction is stopped by adding 5 μl of a 3% phosphoric acid solution. 10 μl of the reaction mixture is then spotted onto a Filtermat P30 filter (Wallac) and washed 3 times for 5 min. in 75 mM phosphoric acid and 1 time for 5 min. in methanol prior to drying and quantification on the Typhoon (Amersham) using a phosphorage storage screen.
(§3) For each experiment, controls (containing enzyme (complex) and DMSO without compound), a blank incubation (containing DMSO but no enzyme (complex) or compound) and samples (containing enzyme (complex) and compound dissolved in DMSO) were run in parallel. All compounds tested were dissolved and eventually further diluted in DMSO. […] In each test, the blank value was subtracted from both the control and the sample values. The control sample represented maximal enzyme activity. For each sample, the amount of cpm was expressed as a percentage of the mean cpm value of the controls. When appropriate, IC50-values (concentration of the drug, needed to reduce the enzyme activity to 50% of the control) were computed using linear interpolation between the experimental points just above and below the 50% level. Herein the effects of test compounds are expressed as pIC50 (the negative log value of the IC50-value).

CDK4/cyclinD1, sequence (P11802 whole entry): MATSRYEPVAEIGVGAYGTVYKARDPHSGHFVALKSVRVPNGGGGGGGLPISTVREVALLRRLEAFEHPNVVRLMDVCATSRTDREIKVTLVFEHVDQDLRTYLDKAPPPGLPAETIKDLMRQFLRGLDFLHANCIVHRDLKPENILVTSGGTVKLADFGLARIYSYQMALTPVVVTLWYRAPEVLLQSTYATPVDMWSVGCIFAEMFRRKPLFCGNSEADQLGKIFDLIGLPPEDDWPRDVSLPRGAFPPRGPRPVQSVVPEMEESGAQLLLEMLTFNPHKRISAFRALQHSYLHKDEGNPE
CDK4/cyclinD1, sequence (P24385 whole entry partner): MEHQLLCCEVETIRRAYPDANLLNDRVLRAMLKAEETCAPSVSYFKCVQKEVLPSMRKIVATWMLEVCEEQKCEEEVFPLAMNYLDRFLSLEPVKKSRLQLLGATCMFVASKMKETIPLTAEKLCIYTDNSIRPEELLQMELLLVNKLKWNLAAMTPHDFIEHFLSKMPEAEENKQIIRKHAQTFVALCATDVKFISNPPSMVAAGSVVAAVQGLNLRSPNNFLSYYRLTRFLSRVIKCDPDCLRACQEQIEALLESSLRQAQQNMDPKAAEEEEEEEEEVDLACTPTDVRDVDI

| Compound | IC50 [nM] |
| --- | --- |
| OCCN1CCN(Cc2ccc(Nc3ncc4cnn(C5CCOCC5)c4n3)cc2)CC1 [compound 54] | 631 |
| CN1CCN(c2ccc(Nc3ncc4cnn(C5CCCCC5)c4n3)cc2Cl)CC1 [compound 18] | 251 |
| CN1CCN(c2ccc(Nc3ncc4c(n3)N(C3CCCCC3)C(=O)C4)cc2)CC1 [compound 89] | 316 |
| CN1CCN(C(=O)c2ccc(Nc3ncc4cnn(C5CCCCC5)c4n3)cc2)CC1 [Co. No. 3] | 6.31 |
| CN1CCC(NCc2ccc(N(C(=O)OC(C)(C)C)c3ncc4cnn(C5CCOCC5)c4n3)cc2)CC1 [compound 72] | > 10000 |
| CC(C)(C)OC(=O)N(c1ccc(CNC2CCOCC2)cc1)c1ncc2cnn(C3CCCCC3)c2n1 [compound 66] | 7940 |
| COCCCNC1CCN(Cc2ccc(Nc3ncc4cnn(C5CCCCC5)c4n3)cc2)CC1 [compound 47] | 31.6 |
| CC(C)(O)C(=O)N1CCN(c2ccc(Nc3ncc4cnn(C5CCCCC5)c4n3)cc2)CC1 [compound 31] | 31.6 |

Other lines, results leading:

| IC50 [nM] | Compound |
| --- | --- |
| 2000 | CN1CCN(c2ccc(Nc3ncc4[nH]c(=O)n([C@H]5C[C@@H]6CC[C@H]5C6)c4n3)cc2)CC1 [compound 88] |
| 251 | c1cc(Nc2ncc3cnn(C4CCCCC4)c3n2)ccc1CNC1CCOCC1 [compound 67] |
| 631 | CC(C)(O)CN1CCN(C(=O)c2ccc(Nc3ncc4cnn(C5CCCCC5)c4n3)cc2)CC1 [compound 58] |
| 12.6 | CC(C)(O)CN1CCN(Cc2ccc(Nc3ncc4cnn(C5CCCCC5)c4n3)cc2)CC1 [compound 38] |
| > 10000 | O=c1[nH]c2cnc(Nc3ccc(S(=O)(=O)N4CCOCC4)cc3)nc2n1C1CCCCC1 [compound 85] |
| 3980 | CN1CCC(NCc2ccc(Nc3ncc4[nH]c(=O)n(C5CCCCC5)c4n3)cc2)CC1 [compound 87] |
| 1000 | CC(C)(C)OC(=O)N1CCN(c2ccc(Nc3ncc4cnn(C5CCCCC5)c4n3)cc2)CC1 [compound 25] |
| 79.4 | c1cc(Nc2ncc3cnn([C@H]4C[C@@H]5CC[C@H]4C5)c3n2)ccc1CN1CCOCC1 [compound 52] |
| 5.01 | CN1CCN(c2ccc(Nc3ncc4cnn([C@H]5C[C@@H]6CC[C@H]5C6)c4n3)cc2)CC1 (single isomer, unassigned) [Co. No. 23] |
| 5010 | CC(=O)N1CCN(c2ccc(Nc3ncc4cnn(C5CCCCC5)c4n3)cc2)CC1 [compound 19] |
| > 10000 | COCCCN(C(=O)OC(C)(C)C)C1CCN(Cc2ccc(N(C(=O)OC(C)(C)C)c3ncc4cnn(C5CCCCC5)c4n3)cc2)CC1 [compound 46] |

biological target: AURORA B (Homo sapiens, UniProt Q96GD4); experiment: In vitro filtration assay for AURORA B inhibitory activity; type: biochemical; settings: peptide (C(LRRWSLG)×4), 1 μM unlabeled ATP, 25° C. 40 minutes, read-out: Aurora B see C.3 (pIC50) (converted)
Description: as §1, with “AURORA B” for “CDK4”, “substrate-phosphorylation” for “pRb-phosphorylation”, “substrate” for “pRb”
The Aurora-B kinase reaction is performed at 25° C. for 40 minutes in a 96-well microtiterplate. The 25 μl reaction volume contains 60 mM Hepes pH 7.5, 3 mM MgCl2, 3 mM MnCl2, 3 μM Na3VO4, 50 μg/ml PEG20000, 1 μM unlabeled ATP, 1 mM DTT, 0.2 μCi AT^33P, 0.25 μg/well peptide (C(LRRWSLG)×4),100 ng Aurora-B/well and 0.2% compound in 100% DMSO. The reaction is stopped by adding 5 μl of a 3% phosphoric acid solution. 10 μl of the reaction mixture is then spotted onto a Filtermat P30 filter (Wallac) and washed 3 times for 5 min. in 75 mM phosphoric acid and 1 time for 5 min. in methanol prior to drying and quantification on the Typhoon (Amersham) using a phosphorage storage screen.
as §3

AURORA B, sequence (Q96GD4 whole entry): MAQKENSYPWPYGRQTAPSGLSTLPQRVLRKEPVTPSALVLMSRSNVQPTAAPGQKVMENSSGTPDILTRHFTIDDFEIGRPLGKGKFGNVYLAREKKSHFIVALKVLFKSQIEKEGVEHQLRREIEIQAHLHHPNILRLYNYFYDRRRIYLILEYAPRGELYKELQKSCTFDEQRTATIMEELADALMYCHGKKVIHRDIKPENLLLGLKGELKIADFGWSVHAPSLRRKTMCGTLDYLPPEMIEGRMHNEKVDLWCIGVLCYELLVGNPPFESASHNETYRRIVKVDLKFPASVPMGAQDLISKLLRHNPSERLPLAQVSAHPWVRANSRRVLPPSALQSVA

| Compound | IC50 [nM] |
| --- | --- |
| OCCN1CCN(Cc2ccc(Nc3ncc4cnn(C5CCOCC5)c4n3)cc2)CC1 [compound 54] | > 10000 |
| CN1CCN(c2ccc(Nc3ncc4cnn(C5CCCCC5)c4n3)cc2Cl)CC1 [compound 18] | > 10000 |
| CN1CCN(c2ccc(Nc3ncc4c(n3)N(C3CCCCC3)C(=O)C4)cc2)CC1 [compound 89] | 3160 |
| CN1CCN(C(=O)c2ccc(Nc3ncc4cnn(C5CCCCC5)c4n3)cc2)CC1 [Co. No. 3] | > 10000 |
| CN1CCC(NCc2ccc(N(C(=O)OC(C)(C)C)c3ncc4cnn(C5CCOCC5)c4n3)cc2)CC1 [compound 72] | > 10000 |
| CC(C)(C)OC(=O)N(c1ccc(CNC2CCOCC2)cc1)c1ncc2cnn(C3CCCCC3)c2n1 [compound 66] | > 10000 |
| COCCCNC1CCN(Cc2ccc(Nc3ncc4cnn(C5CCCCC5)c4n3)cc2)CC1 [compound 47] | 3980 |

Other lines, results leading:

| IC50 [nM] | Compound |
| --- | --- |
| > 10000 | CN1CCN(c2ccc(Nc3ncc4[nH]c(=O)n([C@H]5C[C@@H]6CC[C@H]5C6)c4n3)cc2)CC1 [compound 88] |
| 1000 | c1cc(Nc2ncc3cnn(C4CCCCC4)c3n2)ccc1CNC1CCOCC1 [compound 67] |
| 1260 | CC(C)(O)CN1CCN(C(=O)c2ccc(Nc3ncc4cnn(C5CCCCC5)c4n3)cc2)CC1 [compound 58] |
| 2000 | CC(C)(O)CN1CCN(Cc2ccc(Nc3ncc4cnn(C5CCCCC5)c4n3)cc2)CC1 [compound 38] |
| > 10000 | O=c1[nH]c2cnc(Nc3ccc(S(=O)(=O)N4CCOCC4)cc3)nc2n1C1CCCCC1 [compound 85] |
| > 10000 | CN1CCC(NCc2ccc(Nc3ncc4[nH]c(=O)n(C5CCCCC5)c4n3)cc2)CC1 [compound 87] |
| 3160 | CC(C)(C)OC(=O)N1CCN(c2ccc(Nc3ncc4cnn(C5CCCCC5)c4n3)cc2)CC1 [compound 25] |
| 316 | c1cc(Nc2ncc3cnn([C@H]4C[C@@H]5CC[C@H]4C5)c3n2)ccc1CN1CCOCC1 [compound 52] |
| 158 | CN1CCN(c2ccc(Nc3ncc4cnn([C@H]5C[C@@H]6CC[C@H]5C6)c4n3)cc2)CC1 (single isomer, unassigned) [Co. No. 23] |
| > 10000 | CC(=O)N1CCN(c2ccc(Nc3ncc4cnn(C5CCCCC5)c4n3)cc2)CC1 [compound 19] |
| > 10000 | COCCCN(C(=O)OC(C)(C)C)C1CCN(Cc2ccc(N(C(=O)OC(C)(C)C)c3ncc4cnn(C5CCCCC5)c4n3)cc2)CC1 [compound 46] |

biological target: T1, AURORA A (Homo sapiens, UniProt O14965); experiment: In vitro filtration assay for AURORA A inhibitory activity; type: biochemical; settings: Kemptide substrate, 1 μM unlabeled ATP, 25° C. 40 minutes, read-out: Aurora A see C.2 (pIC50) (converted)
T1 sequence (O14965 1-403): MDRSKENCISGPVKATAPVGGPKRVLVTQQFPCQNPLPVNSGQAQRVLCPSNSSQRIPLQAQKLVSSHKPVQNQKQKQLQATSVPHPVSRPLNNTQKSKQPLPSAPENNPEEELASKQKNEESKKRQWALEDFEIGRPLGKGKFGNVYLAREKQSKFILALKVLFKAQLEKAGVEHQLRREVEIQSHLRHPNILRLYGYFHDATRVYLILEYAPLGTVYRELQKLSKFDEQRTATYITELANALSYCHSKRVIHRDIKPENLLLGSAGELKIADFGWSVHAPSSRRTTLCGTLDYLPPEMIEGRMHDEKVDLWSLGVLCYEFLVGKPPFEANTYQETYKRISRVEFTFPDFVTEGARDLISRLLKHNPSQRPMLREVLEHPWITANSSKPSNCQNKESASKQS
Description: as §1, with “AURORA A” for “CDK4”, “substrate-phosphorylation” for “pRb-phosphorylation”, “substrate” for “pRb”
The Aurora-A kinase reaction is performed at 25° C. for 40 minutes in a 96-well microtiterplate. The 25 μl reaction volume contains 12 mM MOPS pH 7, 0.4 mM EDTA, 0.002% Brij35, 1% glycerol, 0.02% beta-mercapto-ethanol, 0.2 mg/ml BSA, 1 μM unlabeled ATP, […] [^33P]-ATP, 200 μM Kemptide, 3 ng Aurora A/well and 0.2% compound in 100% DMSO.
as §2, §3

| Compound | IC50 [nM] |
| --- | --- |
| OCCN1CCN(Cc2ccc(Nc3ncc4cnn(C5CCOCC5)c4n3)cc2)CC1 [compound 54] | > 10000 |
| CN1CCN(c2ccc(Nc3ncc4cnn(C5CCCCC5)c4n3)cc2Cl)CC1 [compound 18] | 158 |
| CN1CCN(c2ccc(Nc3ncc4c(n3)N(C3CCCCC3)C(=O)C4)cc2)CC1 [compound 89] | 1580 |
| CN1CCN(C(=O)c2ccc(Nc3ncc4cnn(C5CCCCC5)c4n3)cc2)CC1 [Co. No. 3] | 501 |
| CN1CCC(NCc2ccc(N(C(=O)OC(C)(C)C)c3ncc4cnn(C5CCOCC5)c4n3)cc2)CC1 [compound 72] | > 10000 |
| COCCCNC1CCN(Cc2ccc(Nc3ncc4cnn(C5CCCCC5)c4n3)cc2)CC1 [compound 47] | 316 |

More lines, now with the values ahead:

| IC50 [nM] | Compound |
| --- | --- |
| 1580 | CN1CCN(c2ccc(Nc3ncc4[nH]c(=O)n([C@H]5C[C@@H]6CC[C@H]5C6)c4n3)cc2)CC1 [compound 88] |
| 1580 | c1cc(Nc2ncc3cnn(C4CCCCC4)c3n2)ccc1CNC1CCOCC1 [compound 67] |
| 126 | CC(C)(O)CN1CCN(C(=O)c2ccc(Nc3ncc4cnn(C5CCCCC5)c4n3)cc2)CC1 [compound 58] |
| 1000 | CC(C)(O)CN1CCN(Cc2ccc(Nc3ncc4cnn(C5CCCCC5)c4n3)cc2)CC1 [compound 38] |
| 3160 | O=c1[nH]c2cnc(Nc3ccc(S(=O)(=O)N4CCOCC4)cc3)nc2n1C1CCCCC1 [compound 85] |
| > 10000 | CN1CCC(NCc2ccc(Nc3ncc4[nH]c(=O)n(C5CCCCC5)c4n3)cc2)CC1 [compound 87] |
| 100 | CC(C)(C)OC(=O)N1CCN(c2ccc(Nc3ncc4cnn(C5CCCCC5)c4n3)cc2)CC1 [compound 25] |
| 158 | c1cc(Nc2ncc3cnn([C@H]4C[C@@H]5CC[C@H]4C5)c3n2)ccc1CN1CCOCC1 [compound 52] |
| 100 | CN1CCN(c2ccc(Nc3ncc4cnn([C@H]5C[C@@H]6CC[C@H]5C6)c4n3)cc2)CC1 (single isomer, unassigned) [Co. No. 23] |
| > 10000 | CC(=O)N1CCN(c2ccc(Nc3ncc4cnn(C5CCCCC5)c4n3)cc2)CC1 [compound 19] |
| > 10000 | COCCCN(C(=O)OC(C)(C)C)C1CCN(Cc2ccc(N(C(=O)OC(C)(C)C)c3ncc4cnn(C5CCCCC5)c4n3)cc2)CC1 [compound 46] |
